{
  "source": "patent US9655840B2",
  "about": "“Wound care products” (RIGSHOSPITALET, COPENHAGEN UNIVERSITY HOSPITAL, priority 2009, dated 2017)",
  "key": {"[1]": {"tested_on": "P. aeruginosa PAO1 biofilm", "assay": "continuous flow chamber biofilm, 3-day-old, harvested and plated on LB plates for viability", "format": "cell-based", "source_text": "(§1) The wild-type P. aeruginosa PAO1 used for the planktonic and biofilm experiments was obtained from the Pseudomonas Genetic Stock Center (www.pseudomonas.med.ecu.edu, strain PAO0001). The wild-type S. aureus 8325-4, used for planktonic and biofilm experiments was described by Novick, R. P. 1967. For plating, Luria broth (LB) medium mix with 2.0% agar was used. For all experiments including bacterial biofilms, AB minimal medium supplemented with glucose was used except if different is mentioned. […] The continuous flow system is based on once through flow chambers perfused with sterile AB minimal medium containing 0.3 mM glucose as described by Christensen et al. (1999). Continuous flow biofilm tolerance to acetic acid was assessed by growing P. aeruginosa or S. aureus biofilms for three days, then subsequently at day three to four supplementing the AB minimal medium with different concentrations of acetic acid or HCl (HCL served as a as control to acetic acid treatments). […] Due to the buffer capacity of the AB minimal medium used, the pH of the solution became 4.33. […] After the treatment the biofilm biomasses were harvested mechanically from the flow chambers and plated on LB plates for determination of viability. […] The kinetics of antimicrobial activity against mature biofilms was tested by treating a 3-day-old continuous flow chamber biofilms of either P. aeruginosa with 0.5% or S. aureus with 1.0% acetic acid for 24 hours. Due to the buffer capacity of the AB minimal medium used the pH of the solution became 4.33. […] After the treatment the biofilms were harvested mechanically, by scraping with a sterile scalpel, from the flow chambers and plated on LB plates for determination of viable counts."}, "[2]": {"tested_on": "P. aeruginosa biofilm", "assay": "static 24 hour old biofilm in microtiter dishes, CFU after treatment", "format": "cell-based", "conditions": "for antimicrobial effect on static biofilm (CFU): 0.5% acetic acid; for synergistic antimicrobial effect in combination with acetic acid: combined with 0.5% acetic acid, static biofilm", "source_text": "AB minimal medium without acetic acid adjusted to different pH values was used as control.\nAB minimal medium supplemented with increasing concentrations of tobramycin served as control. The biofilm were harvested and plated on LB plates to determine the CFU after treatment (For visual appearance “no growth” is arbitrarily given a CFU value of 2).\nAB minimal medium without acetic acid, but supplemented with increasing concentrations of tobramycin served as control.\nThe wild-type P. aeruginosa PAO1 used for the planktonic and biofilm experiments was obtained from the Pseudomonas Genetic Stock Center (www.pseudomonas.med.ecu.edu, strain PAO0001). The wild-type S. aureus 8325-4, used for planktonic and biofilm experiments was described by Novick, R. P. 1967.\nFor plating, Luria broth (LB) medium mix with 2.0% agar was used. For all experiments including bacterial biofilms, AB minimal medium supplemented with glucose was used except if different is mentioned.\nPlanktonic cultures were grown in shake flasks at 37° C.\nStatic biofilm tolerance to acetic acid was assessed by exchanging the AB minimal medium of 24 h old biofilms with AB minimal medium supplemented with different concentrations of acetic acid or HCl as control. To raise the pH of either acetic acid or HCl, NaOH was added in different concentrations.\nTo elucidate a synergistic antimicrobial effect of acetic acid and antibiotics, static biofilms of P. aeruginosa were grown for 24 hours prior to subsequent treatment with increasing concentrations of tobramycin and 0.5% acetic acid in the pH interval 3-6.85. The pH was adjusted by supplementing the AB minimal medium with either HCl or NaOH."}, "[3]": {"tested_on": "S. aureus 8325-4 biofilm", "source_text": "as §1"}, "[4]": {"tested_on": "clinical mucoid P. aeruginosa isolate biofilm"}, "[5]": {"tested_on": "clinical non-mucoid P. aeruginosa isolate biofilm"}, "[6]": {"conditions": "0.5% acetic acid, 24 hours, AB minimal medium, pH 4.33"}, "[7]": {"conditions": "1.0% acetic acid, 24 hours, AB minimal medium, pH 4.33"}},
  "note": "Structures can show the parent of a compound that is named as a salt. Where two headings read alike, the source gives them in different places.",
  "data": [
    {"molecule": "Cl", "note": "[HCl, reference compound]", "values": [
      {"measurement": "eradication of mature biofilm (viability by plating)", "setting": "[1]; AB minimal medium adjusted to pH 4.33 using HCl, 24 hours (control)", "value": "had no effect"}
    ]},
    {"molecule": "CC(=O)O", "note": "[acetic acid]", "values": [
      {"measurement": "antibacterial effect on static biofilm (CFU)", "setting": "[2]; 0.5% acetic acid alone, pH 6.85", "value": "no antibacterial effect"},
      {"measurement": "antimicrobial effect on static biofilm (CFU)", "setting": "[2]; pH 5", "value": "reduced effect"},
      {"measurement": "antimicrobial effect on static biofilm (CFU)", "setting": "[2]; pH 5.5 and above", "value": "no effect"},
      {"measurement": "antimicrobial effect on static biofilm (CFU)", "setting": "[2]; pH interval 3-4.76", "value": "eradicated biofilms"},
      {"measurement": "eradication of mature biofilm (viability by plating)", "setting": "[3]; [6]", "value": "reduced the number of viable cells"},
      {"measurement": "eradication of mature biofilm (viability by plating)", "setting": "[3]; 1.0% acetic acid in sterile miliQ water", "value": "Complete eradication"},
      {"measurement": "eradication of mature biofilm (viability by plating)", "setting": "[3]; [7]", "value": "complete eradication"},
      {"measurement": "time to complete killing of all bacteria", "setting": "[3]; 1.0% acetic acid, AB minimal medium, pH 4.33", "value": 3, "unit": "h"},
      {"measurement": "eradication of biofilm", "setting": "[4]", "value": "eradicates the biofilms"},
      {"measurement": "eradication of mature biofilm (viability by plating)", "setting": "[1]; 0.5% acetic acid in sterile miliQ water", "value": "Complete eradication"},
      {"measurement": "eradication of mature biofilm (viability by plating)", "setting": "[1]; [6]", "value": "completely eradicated"},
      {"measurement": "time to complete killing of all bacteria", "setting": "[1]; 0.5% acetic acid, AB minimal medium, pH 4.33", "value": 3, "unit": "h"},
      {"measurement": "eradication of mature biofilm (viability by plating)", "setting": "[1]; [7]", "value": "completely eradicated"},
      {"measurement": "eradication of biofilm", "setting": "[5]", "value": "eradicates the biofilms"}
    ]},
    {"molecule": "O=C(O)c1cn(C2CC2)c2cc(N3CCNCC3)c(F)cc2c1=O", "note": "[ciprofloxaxine, reference compound]", "values": [
      {"measurement": "synergistic antimicrobial effect in combination with acetic acid", "setting": "[2]", "value": "analogous synergistic effects"}
    ]},
    {"molecule": "NC[C@H]1O[C@H](O[C@H]2[C@H](O)[C@@H](O[C@H]3O[C@H](CO)[C@@H](O)[C@H](N)[C@H]3O)[C@H](N)C[C@@H]2N)[C@H](N)C[C@@H]1O", "note": "[tobramycin, reference compound]", "values": [
      {"measurement": "reduction of bacterial viability", "setting": "[2]; tobramycin alone, concentrations above 12.5 μg/ml", "value": 5, "unit": "fold"}
    ]},
    {"molecule": "colistin [reference compound]", "values": [
      {"measurement": "synergistic antimicrobial effect in combination with acetic acid", "setting": "[2]", "value": "analogous synergistic effects"}
    ]}
  ]
}
